Test results from ChEMBL document CHEMBL1123971, “Synthesis, platelet aggregation inhibitory activity, and in vivo antithrombotic activity of new 1,4-dihydropyridines” (J Med Chem, 1988).
Several values for one entry are separate records, joined by “and”; a condition that tells them apart may be missing. Equal entries are not always repeated.

Experiments:
Type in all cases: functional
[1] = organism: Mus musculus; test: Dose required to protect 50% of tested mice against experimental antithrombosis.
[2] = organism: Cavia porcellus; test: Effect on guinea pig artia (beats/min), at the a dose of 10e-9 M
[3] = organism: Cavia porcellus; test: Effect on guinea pig artia (beats/min), at the a dose of 10e-8 M
[4] = organism: Cavia porcellus; test: Effect on guinea pig artia (beats/min), at the a dose of 0 M
[5] = organism: Cavia porcellus; test: Effect on guinea pig artia (beats/min), at the a dose of 10e-7 M
[6] = organism: Cavia porcellus; test: Effect on guinea pig artia (beats/min), at the a dose of 10e-6 M
[7] = organism: Mus musculus; test: Effective dose of the compound required to protect […] tested mice against experimental antithrombosis
[8] = organism: Oryctolagus cuniculus; test: Effect on 35 mM K+-induced contraction on rabbit aorta at a dose of 3*10e-8 mol/L
[9] = organism: Oryctolagus cuniculus; test: Effect on 35 mM K+-induced contraction on rabbit aorta at a dose of 3*10e-9 mol/L
[10] = organism: Oryctolagus cuniculus; test: Effect on 35 mM K+-induced contraction on rabbit aorta at a dose of 10e-8 mol/L
[11] = organism: Oryctolagus cuniculus; test: Effect on 35 mM K+-induced contraction on rabbit aorta at a dose of 10e-7 mol/L
[12] = organism: Oryctolagus cuniculus; test: Effect on 35 mM K+-induced contraction on rabbit aorta at a dose of 10e-9 mol/L

SMILES: CO/C(O)=C1\C(C)=NC(C)=C(C(=O)OCN2C(=O)c3ccccc3S2(=O)=O)C1C (stereo not given)
- ED50 [1]: > 220 µmol/kg and > 100 mg/kg

SMILES: CCCCC1C(C(=O)OCCN2C(=O)c3ccccc3S2(=O)=O)=C(C)N=C(C)/C1=C(/O)OC (stereo not given)
- ED50 [1]: 78.4 µmol/kg and 37.3 mg/kg

SMILES: CCOC(=O)C1=C(C)NC(C)=C(C(=O)OC)C1c1cccc([N+](=O)[O-])c1 (stereo not given) [NITRENDIPINE]
- Beats/min [2]: 190
- Control [2]: 100%
- Beats/min [3]: 185
- Control [3]: 97.5%
- Beats/min [4]: 190
- Control [4]: 100%
- Beats/min [5]: 179
- Control [5]: 94%
- Beats/min [6]: 153
- Control [6]: 81%

SMILES: CC(=O)Oc1ccccc1C(=O)O [ASPIRIN]
- ED30 [7]: 166.66 µM/kg
- ED30 ([7]; Mus musculus, read-out: ED30): 30 mg/kg

SMILES: CC1=NC(C)=C(C(=O)OCCNC(=O)c2ccccc2O)C(C)/C1=C(\O)OCCN1C(=O)c2ccccc2S1(=O)=O (stereo not given)
- ED50 [1]: 51.4 µmol/kg and 30 mg/kg

SMILES: CCO/C(O)=C1\C(C)=NC(C)=C(C(=O)OCN2C(=O)c3ccccc3S2(=O)=O)C1C (stereo not given)
- ED50 [1]: 134 µmol/kg and 58.3 mg/kg

SMILES: CO/C(O)=C1\C(C)=NC(C)=C(C(=O)OCCN2C(=O)c3ccccc3S2(=O)=O)C1C (stereo not given)
- ED50 [1]: 138 µmol/kg and 59.9 mg/kg

SMILES: COC(=O)C1=C(C)NC(C)=C(C(=O)OC)C1c1ccccc1[N+](=O)[O-] [NIFEDIPINE]
- Inhibition [8]: 88.35%
- Inhibition [9]: 41.73%
- ED50 [1]: 6.93 µmol/kg and 2.4 mg/kg
- Inhibition [10]: 73.66%
- Inhibition [11]: 100%
- Inhibition [12]: 18.28%

SMILES: Clc1ccccc1CN1CCc2sccc2C1 [TICLOPIDINE]
- ED50 [1]: 152 µmol/kg and 40 mg/kg

SMILES: OCCN(CCO)c1nc(N2CCCCC2)c2nc(N(CCO)CCO)nc(N3CCCCC3)c2n1 [DIPYRIDAMOLE]
- ED50 [1]: 143 µmol/kg and 72 mg/kg
